The subject of the test is cardiomyocytes. As to the kind of experiment: Drug tests on cultured cardiomyocytes recorded with 3D nanotransistor biosensor (AP and mechanical signals). It is filed as cell-based, human. The following applies: for amplitude of AP / amplitude of broad peaks (mechanical signal): after adding drug, 20 μM, electrical recording. On the procedure: Human embryonic stem cell-derived cardiomyocytes (hESC-CMs), which are considered promising in vitro models of cardiac health and disease, were cultured on the device substrate.
As part of experimental trials, drug tests were performed to further reveal the potential of implementing the sensors in pharmacological and pathological studies on cells. Blebbistatin, an inhibitor of myosin essential for motile machinery, was used to suppress cell contraction, as shown in FIG. 3A.
Conversely, lidocaine, a Na+ channel blocker, was added to suppress Na+ influx which contributes mostly to extracellular AP, as shown in FIG. 3D.
A Ca^2+ dysfunctional model was also built by treating the cardiomyocytes with isradipine, a Ca^2+ channel blocker used for treating a wide variety of cardiovascular disorders, as shown in FIG. 3G and its inset.
Cardiomyocytes were differentiated from human embryonic stem cells (hESCs, WAe009-A, H9) and human induced pluripotent stem cells (hiPSCs, generated from human primary T cells using episomal reprogramming) following methods described previously. Briefly, both cell types were maintained in the 60 mm tissue culture dishes coated with 10 ug/mL Matrigel in DMEM-F12 (Gibco™) using Essential 8 medium (Gibco™) and sub-passaged every 3-4 days. During differentiation, cells were seeded in a 12-well plate for 2-3 days until confluency, then replaced with RPMI 1640 medium (Gibco™) plus 1% B27-insulin (Gibco™) and 8 μM CHIR99021 (Tocris Bioscience™) (day 0). After 24 h (day 1), the medium was changed to RPMI 1640 plus 1% B27-insulin. On day 3, day 5, and day 7, the medium was changed to RPMI 1640 plus 1% B27-insulin and 5 μM IWR-1-endo (Cayman Chemical), RPMI 1640 plus 1% B27-insulin, and RPMI 1640 plus 1% B27, respectively. The medium was then replaced with RPMI 1640 plus 1% B27 every other day. […] During days 10-15, cardiomyocytes were ready for experiments. The cells were rinsed with 1×DPBS to remove calcium and inhibit contraction, then incubated with 0.5 mL of 0.5 mM Trypsin-EDTA (Gibco™) for 5 mins in a 37° C. incubator to dissociate into single cells. The EDTA was then aspirated, and the cells were dissociated by gently pipetting with 2 mL RPMI 1640 plus 1% B27 using a 1 ml pipet tip. The cells were transferred to a 15 mL conical tube and centrifuged at 250 g for 3 minutes, then resuspended with 2 mL RPMI 1640 plus 1% B27 supplemented with 10% Fetal Bovine Serum (Gibco™) and 10 μM Y-27632 ROCK inhibitor (Tocris Bioscience™). The device substrate integrated with nanotransistors was sterilized by incubating in 70% ethanol solution (1 h) at room temperature and then UV-treated (1 h). The device was coated with 20 μg/mL Matrigel in RPMI 1640 for 1 h at 37° C. Cells were seeded on the device substrate at the density of 3-5×10^5/cm^2. The cardiomyocytes were maintained using RPMI 1640 plus 1% B27 by changing the medium daily. Electrical recordings were typically performed starting from day 5 after the cell seeding.
All in vitro electrical recordings were carried out at the ambient environment with an Au reference electrode.

Setting [1] is: treatment, concentration not given.

For the compound `Cc1cccc(CCN2CCC(C(=O)c3ccc(NS(C)(=O)=O)cc3)CC2)n1` [E-4031], under setting [1], the “contractile frequency and amplitude” value is “fluctuations in contractile frequency and amplitude”.
Turning to `Cc1ccc2c(c1)C(=O)C1(O)CCN(c3ccccc3)C1=N2` (centres unmarked) [blebbistatin], the “amplitude of AP” value was “maintained the similar level” and the “amplitude of broad peaks (mechanical signal)” value is reported as “substantial decrease”. Under “washing out blebbistatin”, the “broad peaks (mechanical signal) after washing out” value was “restored the broad peaks”.
Consider `COC(=O)C1=C(C)NC(C)=C(C(=O)OC(C)C)C1c1cccc2nonc12` (centres unmarked) [isradipine], for which, for the setting “isradipine treatment, 20 nM”, the AP entry is “concurrent decrease”, the mechanical signal result is reported as “apparent suppression” and the “time to apparent suppression of mechanical signal” value was “about 100 seconds”. Also, the “mechanical and AP signals after washing out” value (washing out isradipine) is recorded as “restored both signals”.
Turning to `CCN(CC)CC(=O)Nc1c(C)cccc1C` [lidocaine], the “amplitude of AP” value was “prominent suppression” and the “amplitude of broad peaks (mechanical signal)” value is given as “no obvious effect”. For the same compound, the AP amplitude (after lidocaine 20 μM, before ~10 nS) is ~ 2 nS. For the same compound, where the note is “after lidocaine 20 μM, before ~19 ms”, the AP duration is given as ~ 40 ms.
`NC[C@H](O)c1ccc(O)c(O)c1` [norepinephrine]: under setting [1], the conduction pathway entry was “alteration of the conduction pathway” and the contractile frequency entry was “increased contractile frequency”.

The record behind these values is patent publication US12710419B2, “3D sensors for simultaneous detection of bioelectronic and biomechanical signals in tissue” (UNIVERSITY OF MASSACHUSETTS, priority 2022, dated 2026).
